Paper PMC11087982, “In vitro and in vivo activities of a trithiolato-diRuthenium complex conjugated with sulfadoxine against the apicomplexan parasite Toxoplasma gondii” (International Journal for Parasitology: Drugs and Drug …, 2024)
Where two headings read alike, the source gives them in different places.

Tests used:
[1] = system: T. gondii β-gal tachyzoites; conditions: 2021, cited from earlier work
[2] = HFF host cell cytotoxicity, Alamar blue viability assay; type: cell-based, human; conditions: human, uninfected HFF cells (confluent monolayer), read-out: viability (% of control ± SD)
Description: (§1) To determine cytotoxicity of compounds on host cells, HFF were grown to confluency in 96 well plates and were treated with different concentrations of the drugs solubilized in medium during 72 h at 37 °C/5% CO2, or were treated with the corresponding concentration of DMSO only ([Desiatkina et al., 2020]; [Holzer et al., 2023]; [Păunescu et al., 2021]). The Alamar blue viability assay was used as previously described ([Desiatkina et al., 2020], [2021], [2022a], [2022b]; [Holzer et al., 2023]; [Păunescu et al., 2021]). In short, resazurin was added to each well at 0.01 mg/ml, and subsequently fluorescence of the produced resorufin was measured at excitation wavelength 544/20 nm and emission wavelength 590/20 nm using a Hidex Sense microplate reader (Hidex, Turku, Finland).

[3] = system: T. gondii β-gal tachyzoites; experiment: T. gondii β-Gal tachyzoite proliferation in HFF monolayers (β-galactosidase fluorometric assay); type: cell-based, Toxoplasma gondii
Description: Effects of drugs on the proliferative capacity of T. gondii tachyzoites were investigated using a transgenic T. gondii RH strain constitutively expressing β-Galactosidase (T. gondii β-Gal ([Dc et al., 1997]);). Assays were carried out in 96 well plates in the presence or absence of the different compounds. For the quantification of β-Galactosidase activity, a fluorometric assay was applied as previously described ([Desiatkina et al., 2021]; [Păunescu et al., 2021]).

HFF = HFF host cell cytotoxicity, Alamar blue viability assay; type: cell-based, human; conditions: 72 h, uninfected HFF
Description: as §1

Non-infected HFF = experiment: TMRE uptake assay (mitochondrial membrane potential), non-infected HFF; type: cell-based, human; conditions: 0.5 μM, 3.5 h
Description: (§2) 5 × 10^5 HFF were seeded into T25 culture flasks in DMEM complete medium and maintained in culture for 72 h to reach ⁓80% confluency. HFF monolayers were left either non-infected or were infected with 2 × 10^5 T. gondii Me49 tachyzoites. After another 48 h, the medium was removed from infected and non-infected T25 flasks and was replaced either by medium containing 0.5 μM RU-SDX, or in the case of non-treated controls, medium containing 0.05% DMSO. As positive controls, the two mitochondrial uncouplers FCCP and CCCP were applied at a concentration of 80 and 50 μM, respectively. PYR was applied at 0.5 μM as a control drug not affecting the MMP, and RU-adenine, used as a conjugate shown earlier to impact on the mitochondrial ultrastructure in T. gondii ([Anghel et al., 2021]; [Desiatkina et al., 2022b]), was also tested at 0.5 μM ([Anghel et al., 2021]; [Desiatkina et al., 2022b]). […] Fluorescence was measured using a Hidex Sense microplate reader instrument ([…]) with the excitation wavelength 544/20 nm and emitted light collected at 590/20 nm. Value from wells belonging to the same experimental condition were summed and the mean TMRE uptake in each condition was calculated from three biological replicates.

T. gondii-infected HFF = experiment: TMRE uptake assay (mitochondrial membrane potential), T. gondii-infected HFF; type: cell-based, Toxoplasma gondii Me49 in human HFF; conditions: 0.5 μM, 3.5 h
Description: as §2

## COc1ncnc(NS(=O)(=O)c2ccc(N)cc2)c1OC [SDX, Sulfadoxine]
[1]; 1 μM, ref Desiatkina et al.
  proliferation (% of control ± SD): ^b83 ± 2%
[1]; 1.1 μM, ref Desiatkina et al.
  proliferation (% of control ± SD): ^b^, ^∗111 ± 3%
[2]; 2.5 μM
  viability at 72 h, 2.5 µM: 118 ± 6%
[2]; 5 μM
  viability at 72 h, 5 µM: 106 ± 9%
[2]; 10 μM
  viability at 72 h, 10 µM: 93 ± 5%
[3]; Toxoplasma gondii, 1.25 μM, read-out: proliferation (% of control ± SD)
  activity at 1.25 µM: 127%
[3]; Toxoplasma gondii, 2.5 μM, read-out: proliferation (% of control ± SD)
  activity at 2.5 µM: 113%
[3]; Toxoplasma gondii, 5 μM, read-out: proliferation (% of control ± SD)
  activity at 5 µM: 112%

## CC(C)(C)c1ccc(C[S-])cc1.CC(C)(C)c1ccc(C[S-])cc1.Cc1ccc(C(C)C)cc1.Cc1ccc(C(C)C)cc1.O=C(O)Cc1ccc([S-])cc1.[Cl-].[Ru+2].[Ru+2] [RU]
[1]; 1 μM, ref Păunescu et al.
  proliferation (% of control ± SD): ^a110 ± 2%
[1]; 1.1 μM, ref Păunescu et al.
  proliferation (% of control ± SD): ^a114 ± 2%
HFF; 2.5 μM
  viability (% of control ± SD): 100 ± 10%
HFF; 5 μM
  viability (% of control ± SD): 70 ± 10%
HFF; 10 μM
  viability (% of control ± SD): 0 ± 0%
[3]; 1.25 μM
  proliferation (% of control ± SD): ^∗64 ± 10%
[3]; 2.5 μM
  proliferation (% of control ± SD): ^∗∗∗12 ± 2%
[3]; 5 μM
  proliferation (% of control ± SD): ^∗∗∗0 ± 0%

## CCc1nc(N)nc(N)c1-c1ccc(Cl)cc1 [PYR, Pyrimethamine, reference compound]
Non-infected HFF
  TMRE fluorescence intensity / TMRE uptake (percentage of non-treated control = 100%): 99%
T. gondii-infected HFF
  TMRE fluorescence intensity / TMRE uptake (percentage of non-treated control = 100%): 106%
